In EP0021685A1:
In brackets after ≈: the same amount, converted by molar mass.

Assays:
[1] = tested on: Trichophyton mentagrophytes; assay: Disc-diffusion antifungal test; conditions: for zone of inhibition at 10000 µg/mL: read-out: Zone diameters (mm)
[2] = tested on: Histoplasma capsulatum; assay: microbe, parasite or virus in culture; format: cell-based
[3] = physchem; conditions: 66% aqueous dimethylformamide, pH 7.12
[4] = tested on: Candida albicans; assay: Disc-diffusion antifungal test; conditions: 6-mm pads dipped in solutions of test compound
[5] = tested on: Blastomyces dermatitidis; assay: Standard agar-dilution test; format: cell-based
[6] = tested on: Neurospora crassa; assay: Disc-diffusion antifungal test; conditions: read-out: Zone diameters (mm)

Row | Compound | MIC (mcg/disc) ([1]; disc-diffusion, 6-mm pads dipped in solutions of test compound) | MIC [2] | pKa [3] | MIC (mcg/disc) [4] | MIC [5] | zone of inhibition at 10000 µg/mL [1] | zone of inhibition at 10000 µg/mL [6]
1 | CCCCC/C=C\C/C=C\CCCCCCCC(=O)N[C@H]1C[C@@H](O)[C@@H](OC)NC(=O)[C@@H]2[C@@H](O)[C@@H](C)CN2C(=O)[C@H]([C@@H](C)O)NC(=O)[C@H]([C@H](O)[C@@H](O)c2ccc(O)cc2)NC(=O)[C@@H]2C[C@@H](O)CN2C(=O)[C@H]([C@@H](C)O)NC1=O | 0.078 mcg/disc | 100 µg/mL (≈ 93.1 µM) | ~12.9 | 1.25 mcg/disc | 100 µg/mL (≈ 93.1 µM) | – | –
2 | CCCCC/C=C\C/C=C\CCCCCCCC(=O)N[C@H]1C[C@@H](O)[C@@H](OCCCCCC)NC(=O)[C@@H]2[C@@H](O)[C@@H](C)CN2C(=O)[C@H]([C@@H](C)O)NC(=O)[C@H]([C@H](O)[C@@H](O)c2ccc(O)cc2)NC(=O)[C@@H]2C[C@@H](O)CN2C(=O)[C@H]([C@@H](C)O)NC1=O [R = n-hexyl] | – | – | – | – | – | 35 mm | 25 mm
3 | CCCCC/C=C\C/C=C\CCCCCCCC(=O)N[C@H]1C[C@@H](O)[C@@H](OCCC)NC(=O)[C@@H]2[C@@H](O)[C@@H](C)CN2C(=O)[C@H]([C@@H](C)O)NC(=O)[C@H]([C@H](O)[C@@H](O)c2ccc(O)cc2)NC(=O)[C@@H]2C[C@@H](O)CN2C(=O)[C@H]([C@@H](C)O)NC1=O [R = n-propyl] | – | – | – | – | – | 35 mm | 20 mm
